In paper PMC12394658, “Discovery of Zharp1-163 as a dual inhibitor of ferroptosis and necroptosis for the treatment of inflammatory disorders and kidney injury” (Cell Death Discovery, 2025):

Experiments:
Experiment in all cases: biochemical
Parameters in all cases: Kinase selectivity panel of 81 human kinases, ADP-Glo or HTRF, per cent inhibition at 1 uM
BMX = BMX (Homo sapiens, UniProt P51813)
Summary of the method: (§1)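 Kinase-panel selectivity profiling of 81 kinases with compound at 1000 nM.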

TRKB = target: T1, TRKB (Homo sapiens, UniProt Q16620)
T1 construct: gene NTRK2
Summary of the method: as §1

TGFβR2 = target: T2, TGFβR2 (Homo sapiens, UniProt P37173)
T2 construct: gene TGFBR2
Summary of the method: as §1

EGFR = EGFR (Homo sapiens, UniProt P00533)
Summary of the method: as §1

MRCKβ = target: T3, MRCKβ (Homo sapiens, UniProt Q9Y5S2)
T3 construct: gene CDC42BPB
Summary of the method: as §1

CK1γ2 = target: T4, CK1γ2 (Homo sapiens, UniProt P78368)
T4 construct: gene CSNK1G2
Summary of the method: as §1

EPHA2 = EPHA2 (Homo sapiens, UniProt P29317)
Summary of the method: as §1

AurB = target: T5, AurB (Homo sapiens, UniProt Q96GD4)
T5 construct: gene AURKB
Summary of the method: as §1

SYK = SYK (Homo sapiens, UniProt P43405)
Summary of the method: as §1

CDK5/p35NCK = target: T6, CDK5/p35NCK (Homo sapiens, UniProt Q00535)
T6 construct: p35NCK
Summary of the method: as §1

CaMK1α = target: T7, CaMK1α (Homo sapiens, UniProt Q14012)
T7 construct: gene CAMK1
Summary of the method: as §1

PIK3CA = PIK3CA (Homo sapiens, UniProt P42336)
Summary of the method: as §1

PAK2 = PAK2 (Homo sapiens, UniProt Q13177)
Summary of the method: as §1

Erk7 = target: T8, Erk7 (Homo sapiens, UniProt Q8TD08)
T8 construct: gene MAPK15
Summary of the method: as §1

T3 sequence (Q9Y5S2 whole entry): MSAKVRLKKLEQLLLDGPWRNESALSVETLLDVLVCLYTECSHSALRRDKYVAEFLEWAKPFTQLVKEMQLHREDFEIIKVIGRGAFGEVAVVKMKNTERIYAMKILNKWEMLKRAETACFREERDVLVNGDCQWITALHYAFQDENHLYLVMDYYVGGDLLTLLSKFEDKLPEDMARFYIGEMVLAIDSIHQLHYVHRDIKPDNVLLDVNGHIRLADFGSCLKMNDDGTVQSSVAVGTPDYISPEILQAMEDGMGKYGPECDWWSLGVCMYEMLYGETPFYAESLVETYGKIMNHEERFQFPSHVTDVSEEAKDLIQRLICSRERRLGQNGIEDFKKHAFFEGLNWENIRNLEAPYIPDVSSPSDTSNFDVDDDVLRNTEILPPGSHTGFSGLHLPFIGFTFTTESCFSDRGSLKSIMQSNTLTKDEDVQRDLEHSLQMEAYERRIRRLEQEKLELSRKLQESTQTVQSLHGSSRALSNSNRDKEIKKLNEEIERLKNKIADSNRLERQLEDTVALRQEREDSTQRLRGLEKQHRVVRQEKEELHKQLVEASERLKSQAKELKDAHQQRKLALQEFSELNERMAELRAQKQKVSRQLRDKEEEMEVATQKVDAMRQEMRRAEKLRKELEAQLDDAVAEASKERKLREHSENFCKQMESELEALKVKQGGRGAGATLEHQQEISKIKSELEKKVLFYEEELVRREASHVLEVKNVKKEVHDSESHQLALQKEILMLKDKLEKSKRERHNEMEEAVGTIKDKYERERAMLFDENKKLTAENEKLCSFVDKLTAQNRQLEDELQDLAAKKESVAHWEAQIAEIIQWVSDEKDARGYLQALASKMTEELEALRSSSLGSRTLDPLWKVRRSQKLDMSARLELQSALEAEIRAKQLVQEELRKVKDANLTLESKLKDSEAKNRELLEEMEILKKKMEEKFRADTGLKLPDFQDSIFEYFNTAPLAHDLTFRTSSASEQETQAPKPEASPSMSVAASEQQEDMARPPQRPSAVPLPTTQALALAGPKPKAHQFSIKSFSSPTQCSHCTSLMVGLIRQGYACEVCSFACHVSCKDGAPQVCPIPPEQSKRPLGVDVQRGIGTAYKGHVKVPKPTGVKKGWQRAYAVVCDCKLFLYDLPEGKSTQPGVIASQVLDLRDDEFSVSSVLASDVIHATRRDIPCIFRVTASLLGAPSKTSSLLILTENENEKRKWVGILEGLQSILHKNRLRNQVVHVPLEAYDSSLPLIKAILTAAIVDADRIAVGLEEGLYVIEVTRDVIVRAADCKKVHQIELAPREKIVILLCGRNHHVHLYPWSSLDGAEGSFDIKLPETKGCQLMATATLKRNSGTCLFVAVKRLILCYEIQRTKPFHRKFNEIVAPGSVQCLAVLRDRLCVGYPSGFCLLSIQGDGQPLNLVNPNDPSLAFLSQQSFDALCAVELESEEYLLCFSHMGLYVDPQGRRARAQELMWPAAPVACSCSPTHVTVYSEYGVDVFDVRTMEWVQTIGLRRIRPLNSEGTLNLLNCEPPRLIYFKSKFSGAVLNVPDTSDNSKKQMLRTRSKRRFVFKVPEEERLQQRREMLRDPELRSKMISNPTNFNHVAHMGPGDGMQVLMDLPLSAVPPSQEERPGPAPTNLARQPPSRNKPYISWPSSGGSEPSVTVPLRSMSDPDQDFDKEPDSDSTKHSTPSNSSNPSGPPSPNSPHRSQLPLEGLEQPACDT
EPHA2, sequence (P29317 whole entry): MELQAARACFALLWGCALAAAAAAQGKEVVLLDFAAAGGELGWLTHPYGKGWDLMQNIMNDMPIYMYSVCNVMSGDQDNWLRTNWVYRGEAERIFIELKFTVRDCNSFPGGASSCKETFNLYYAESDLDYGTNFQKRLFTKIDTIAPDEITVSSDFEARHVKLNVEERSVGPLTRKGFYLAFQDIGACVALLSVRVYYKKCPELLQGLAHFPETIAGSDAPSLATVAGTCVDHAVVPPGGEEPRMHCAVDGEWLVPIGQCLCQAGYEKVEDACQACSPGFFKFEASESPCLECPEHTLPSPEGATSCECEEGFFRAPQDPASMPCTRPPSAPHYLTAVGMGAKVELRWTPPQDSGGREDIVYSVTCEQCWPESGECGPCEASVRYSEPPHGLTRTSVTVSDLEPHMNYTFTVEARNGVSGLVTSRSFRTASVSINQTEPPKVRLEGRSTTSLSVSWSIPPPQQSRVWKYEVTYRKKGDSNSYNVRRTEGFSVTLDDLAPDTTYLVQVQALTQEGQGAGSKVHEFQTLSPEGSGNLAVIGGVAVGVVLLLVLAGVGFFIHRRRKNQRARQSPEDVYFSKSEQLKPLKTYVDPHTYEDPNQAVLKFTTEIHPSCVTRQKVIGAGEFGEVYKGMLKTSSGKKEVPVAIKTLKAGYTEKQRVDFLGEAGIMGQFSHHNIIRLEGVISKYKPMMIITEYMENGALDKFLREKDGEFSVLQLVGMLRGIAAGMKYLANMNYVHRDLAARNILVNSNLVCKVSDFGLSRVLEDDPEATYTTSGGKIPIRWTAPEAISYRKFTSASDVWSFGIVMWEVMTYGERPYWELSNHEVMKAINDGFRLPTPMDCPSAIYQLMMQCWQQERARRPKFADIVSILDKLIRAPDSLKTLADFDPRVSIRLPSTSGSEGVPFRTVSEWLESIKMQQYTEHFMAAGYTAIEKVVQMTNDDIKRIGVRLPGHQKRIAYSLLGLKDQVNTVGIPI
T6 sequence (Q00535 whole entry): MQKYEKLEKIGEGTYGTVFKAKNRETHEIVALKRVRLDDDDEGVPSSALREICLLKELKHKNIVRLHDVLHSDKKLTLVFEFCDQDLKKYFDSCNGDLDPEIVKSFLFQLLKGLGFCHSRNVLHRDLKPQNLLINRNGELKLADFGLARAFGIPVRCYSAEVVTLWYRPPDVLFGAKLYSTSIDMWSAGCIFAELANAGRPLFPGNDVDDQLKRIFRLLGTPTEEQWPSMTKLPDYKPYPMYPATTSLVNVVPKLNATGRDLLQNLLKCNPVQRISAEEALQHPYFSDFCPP
T6 sequence (Q15078 whole entry partner): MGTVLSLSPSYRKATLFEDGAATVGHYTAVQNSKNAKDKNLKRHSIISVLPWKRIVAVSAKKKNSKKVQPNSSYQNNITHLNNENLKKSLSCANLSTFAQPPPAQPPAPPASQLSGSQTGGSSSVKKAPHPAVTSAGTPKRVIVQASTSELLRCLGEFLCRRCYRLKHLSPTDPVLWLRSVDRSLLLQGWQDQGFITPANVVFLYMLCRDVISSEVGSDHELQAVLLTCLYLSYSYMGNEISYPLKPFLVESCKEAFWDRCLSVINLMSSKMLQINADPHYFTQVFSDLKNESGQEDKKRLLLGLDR
BMX, sequence (P51813 whole entry): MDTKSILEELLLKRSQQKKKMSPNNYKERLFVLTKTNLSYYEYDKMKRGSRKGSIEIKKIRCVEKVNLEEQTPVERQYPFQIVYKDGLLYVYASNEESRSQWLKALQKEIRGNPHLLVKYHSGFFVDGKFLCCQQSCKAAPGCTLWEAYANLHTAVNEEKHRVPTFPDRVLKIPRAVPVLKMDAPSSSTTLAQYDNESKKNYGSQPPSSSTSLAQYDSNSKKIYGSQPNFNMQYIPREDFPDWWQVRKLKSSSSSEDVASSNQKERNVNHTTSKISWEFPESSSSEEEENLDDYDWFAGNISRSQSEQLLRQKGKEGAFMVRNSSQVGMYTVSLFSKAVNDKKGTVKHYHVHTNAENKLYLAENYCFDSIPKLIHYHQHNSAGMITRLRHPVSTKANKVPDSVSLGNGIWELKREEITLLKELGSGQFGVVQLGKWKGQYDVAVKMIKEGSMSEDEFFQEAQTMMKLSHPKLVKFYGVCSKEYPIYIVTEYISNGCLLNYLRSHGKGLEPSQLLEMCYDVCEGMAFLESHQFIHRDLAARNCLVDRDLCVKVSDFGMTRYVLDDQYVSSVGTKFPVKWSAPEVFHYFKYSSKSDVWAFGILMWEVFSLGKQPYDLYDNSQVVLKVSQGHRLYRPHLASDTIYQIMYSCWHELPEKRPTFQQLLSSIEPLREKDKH
T4 sequence (P78368 whole entry): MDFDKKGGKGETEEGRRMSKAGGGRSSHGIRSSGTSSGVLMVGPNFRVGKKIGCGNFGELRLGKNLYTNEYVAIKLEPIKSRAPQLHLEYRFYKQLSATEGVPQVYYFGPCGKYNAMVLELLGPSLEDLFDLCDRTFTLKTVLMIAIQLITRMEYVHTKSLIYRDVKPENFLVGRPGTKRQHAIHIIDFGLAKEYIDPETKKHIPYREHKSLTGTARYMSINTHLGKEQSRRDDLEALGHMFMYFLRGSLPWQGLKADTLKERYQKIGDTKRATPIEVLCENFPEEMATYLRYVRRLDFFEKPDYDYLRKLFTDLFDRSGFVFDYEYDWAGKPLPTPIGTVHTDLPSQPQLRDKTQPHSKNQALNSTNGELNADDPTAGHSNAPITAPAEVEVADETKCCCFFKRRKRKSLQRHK
T5 sequence (Q96GD4 whole entry): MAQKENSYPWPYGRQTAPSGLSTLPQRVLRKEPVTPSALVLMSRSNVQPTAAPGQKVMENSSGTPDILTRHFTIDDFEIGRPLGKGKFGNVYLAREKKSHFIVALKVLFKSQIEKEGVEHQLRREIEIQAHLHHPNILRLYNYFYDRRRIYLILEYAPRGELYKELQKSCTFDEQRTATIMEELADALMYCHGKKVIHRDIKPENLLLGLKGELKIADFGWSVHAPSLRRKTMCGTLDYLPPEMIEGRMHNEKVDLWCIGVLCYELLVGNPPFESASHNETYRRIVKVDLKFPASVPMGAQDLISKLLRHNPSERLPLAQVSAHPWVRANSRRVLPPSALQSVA

- inhibition at 1 µM (BMX; replicate Data1): -3.03%
- inhibition at 1 µM (BMX; replicate Data2): 11.3%
- inhibition at 1 µM (TRKB; replicate Data1): 61.4%
- inhibition at 1 µM (TRKB; replicate Data2): 58.1%
- inhibition at 1 µM (TGFβR2; replicate Data1): 7.99%
- inhibition at 1 µM (TGFβR2; replicate Data2): 3.92%
- inhibition at 1 µM (EGFR; replicate Data1): -2.16%
- inhibition at 1 µM (EGFR; replicate Data2): -4.3%
- inhibition at 1 µM (MRCKβ; replicate Data1): -0.71%
- inhibition at 1 µM (MRCKβ; replicate Data2): 4.66%
- inhibition at 1 µM (CK1γ2; replicate Data1): -3.03%
- inhibition at 1 µM (CK1γ2; replicate Data2): 8.14%
- inhibition at 1 µM (EPHA2; replicate Data1): -8.55%
- inhibition at 1 µM (EPHA2; replicate Data2): -9.14%
- inhibition at 1 µM (AurB; replicate Data1): 8.89%
- inhibition at 1 µM (AurB; replicate Data2): 13.4%
- inhibition at 1 µM (SYK; replicate Data1): 5.12%
- inhibition at 1 µM (SYK; replicate Data2): 4.56%
- inhibition at 1 µM (CDK5/p35NCK; replicate Data1): 7.89%
- inhibition at 1 µM (CDK5/p35NCK; replicate Data2): 1.25%
- inhibition at 1 µM (CaMK1α; replicate Data1): -18.7%
- inhibition at 1 µM (CaMK1α; replicate Data2): -6.35%
- inhibition at 1 µM (PIK3CA; replicate Data1): 37.1%
- inhibition at 1 µM (PIK3CA; replicate Data2): 35.8%
- inhibition at 1 µM (PAK2; replicate Data1): -3.2%
- inhibition at 1 µM (PAK2; replicate Data2): -2.35%
SMILES: Nc1cn2cc(-c3cnc4c(c3)N(C(=O)OC3CCCCC3)CCO4)ccc2n1 [Zharp1-163]
- inhibition at 1 µM (Erk7; replicate Data1): 5.82%
- inhibition at 1 µM (Erk7; replicate Data2): 0.29%
